In patent publication US11970463B2, “Compounds and their use” (ASTRAZENECA AB, priority 2021, dated 2024):
Values after ≈ are worked out from the molar mass of the structure shown. Where two headings read alike, the source gives them in different places.

How the values were obtained:
[1] = biological target: hERG (Homo sapiens (Human), UniProt Q12809); assay: hERG assay (Test D), SyncroPatch 384PE patch clamp, hERG-expressing CHO cells; format: cell-based; conditions: rt
[2] = Solubility (Test E); format: physicochemical
[3] = Solubility (Test F), McIlvaine buffer pH 6.5; format: physicochemical; conditions: disodium hydrogenphosphate-citric acid (McIlvaine) buffer, 25 °C, pH 6.5, aqueous buffer, thermodynamic from solid, McIlvaine buffer pH 6.5, 25° C., 24 to 72 h; theoretical maximum 200 μM
[4] = tested on: IL-1β production; assay: LPS/ATP test in mice, peritoneal IL-1β by ELISA; format: in vivo, BALB/cAJcl mice; conditions: Mus musculus, LPS/ATP i.p.; for inhibition at 3 mg/kg: 3 mg/kg orally; for inhibition at 1 mg/kg: 1 mg/kg orally
[5] = biological target: T1, Human NLRP3 (Homo sapiens (Human), UniProt Q96P20); conditions: Test C IC50, IL-1β release, THP-1 cells, LPS 2 μg/mL 24 h, BzATP 1 mM
T1 sequence (Q96P20 whole entry): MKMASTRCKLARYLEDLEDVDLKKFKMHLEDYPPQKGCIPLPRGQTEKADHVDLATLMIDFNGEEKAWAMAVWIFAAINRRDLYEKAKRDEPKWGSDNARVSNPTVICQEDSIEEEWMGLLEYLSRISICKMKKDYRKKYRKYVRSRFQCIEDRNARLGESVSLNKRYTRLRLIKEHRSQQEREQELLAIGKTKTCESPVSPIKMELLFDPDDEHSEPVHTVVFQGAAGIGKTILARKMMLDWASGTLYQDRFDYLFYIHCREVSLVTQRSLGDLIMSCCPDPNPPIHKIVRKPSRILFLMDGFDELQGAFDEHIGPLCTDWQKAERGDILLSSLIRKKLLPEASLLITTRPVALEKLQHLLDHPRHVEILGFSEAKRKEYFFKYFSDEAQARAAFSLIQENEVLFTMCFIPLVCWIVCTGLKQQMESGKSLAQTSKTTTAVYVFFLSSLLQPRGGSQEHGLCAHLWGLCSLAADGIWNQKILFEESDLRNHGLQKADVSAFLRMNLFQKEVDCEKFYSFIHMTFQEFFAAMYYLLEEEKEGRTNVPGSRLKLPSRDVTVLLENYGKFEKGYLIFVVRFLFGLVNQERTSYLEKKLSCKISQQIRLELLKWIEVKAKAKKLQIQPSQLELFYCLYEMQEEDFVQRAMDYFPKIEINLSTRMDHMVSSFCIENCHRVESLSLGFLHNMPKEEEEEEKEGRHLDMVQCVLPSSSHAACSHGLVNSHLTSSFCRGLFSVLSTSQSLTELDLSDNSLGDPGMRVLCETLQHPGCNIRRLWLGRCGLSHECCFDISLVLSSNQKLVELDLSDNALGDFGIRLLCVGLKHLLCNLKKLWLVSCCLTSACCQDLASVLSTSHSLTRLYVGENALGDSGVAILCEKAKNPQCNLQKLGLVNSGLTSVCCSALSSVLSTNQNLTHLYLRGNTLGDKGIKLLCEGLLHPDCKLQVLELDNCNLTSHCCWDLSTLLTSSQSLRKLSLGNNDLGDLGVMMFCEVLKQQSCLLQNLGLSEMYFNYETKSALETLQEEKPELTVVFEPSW

[6] = biological target: T1, Human NLRP3
[7] = biological target: T1, Human NLRP3; assay: Human NLRP3 speck formation assay (Test A), nigericin triggered ASC-speck formation in ASC-GFP reporter monocytes

hERG, sequence (Q12809 whole entry): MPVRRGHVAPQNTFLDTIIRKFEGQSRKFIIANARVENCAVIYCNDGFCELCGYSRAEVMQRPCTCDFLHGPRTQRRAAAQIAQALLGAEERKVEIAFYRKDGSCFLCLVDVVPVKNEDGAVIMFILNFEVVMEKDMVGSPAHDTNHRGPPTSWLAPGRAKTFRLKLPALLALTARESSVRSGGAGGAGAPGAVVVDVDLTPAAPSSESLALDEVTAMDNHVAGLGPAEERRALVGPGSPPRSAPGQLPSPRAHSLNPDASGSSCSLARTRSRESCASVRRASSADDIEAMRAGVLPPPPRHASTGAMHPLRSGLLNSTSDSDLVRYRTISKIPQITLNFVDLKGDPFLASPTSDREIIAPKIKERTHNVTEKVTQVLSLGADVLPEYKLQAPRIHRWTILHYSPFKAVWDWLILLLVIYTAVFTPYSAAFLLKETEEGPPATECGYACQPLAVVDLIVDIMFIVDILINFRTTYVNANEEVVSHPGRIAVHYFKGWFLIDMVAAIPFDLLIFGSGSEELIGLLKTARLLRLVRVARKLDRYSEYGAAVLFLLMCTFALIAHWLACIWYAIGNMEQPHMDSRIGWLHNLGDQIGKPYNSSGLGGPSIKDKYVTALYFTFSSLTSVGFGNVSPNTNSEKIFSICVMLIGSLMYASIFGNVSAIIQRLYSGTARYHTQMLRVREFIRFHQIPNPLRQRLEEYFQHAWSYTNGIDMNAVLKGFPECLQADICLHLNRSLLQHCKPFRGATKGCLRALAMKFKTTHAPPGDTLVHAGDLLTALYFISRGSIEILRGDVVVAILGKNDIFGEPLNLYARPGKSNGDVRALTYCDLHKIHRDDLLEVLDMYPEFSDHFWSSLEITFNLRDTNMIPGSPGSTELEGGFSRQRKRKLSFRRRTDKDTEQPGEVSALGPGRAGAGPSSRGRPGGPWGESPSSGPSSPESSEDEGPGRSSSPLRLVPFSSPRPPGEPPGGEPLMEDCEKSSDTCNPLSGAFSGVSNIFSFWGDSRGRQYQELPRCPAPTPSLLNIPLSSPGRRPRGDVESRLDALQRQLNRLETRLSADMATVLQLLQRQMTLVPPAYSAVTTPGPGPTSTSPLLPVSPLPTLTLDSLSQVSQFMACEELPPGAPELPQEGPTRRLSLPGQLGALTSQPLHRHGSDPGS

| SMILES | solubility [2] [µM] | solubility [3] [µg/mL] | IC50 [5] [nM] | IC50 [6] [nM] | EC50 [7] [nM] | IC50 [1] [nM] | inhibition at 3 mg/kg [4] [%] | inhibition at 1 mg/kg [4] [%] |
| --- | --- | --- | --- | --- | --- | --- | --- | --- |
| Oc1cc(C(F)(F)F)cc(F)c1-c1nnc(N[C@@H]2CCC[C@H](O)C2)c2cnccc12 [Example 45, 3-fluoro-2-[4-[[(1R,3S)-3-hydroxycyclohexyl]amino]pyrido[3,4-d]pyridazin-1-yl]-5-(trifluoromethyl)phenol] | 121 (≈ 51.1 µg/mL) | 10.4 (≈ 24.6 µM) | 9 | 25 | 44 | > 40000 | 82 |  |
| Oc1cc(C(F)(F)F)ccc1-c1nnc(N[C@@H]2CC[C@@H](O)C2)c2cnccc12 [Example 59, 2-(4-(((1R,3R)-3-hydroxycyclopentyl)amino)pyrido[3,4-d]pyridazin-1-yl)-5-(trifluoromethyl)phenol] | 47 (≈ 18.3 µg/mL) | > 78.1 | 5 | 9 | 16 | > 40000 | 70 | 44 |
| C[C@@]1(O)CC[C@@H](Nc2nnc(-c3ccc(C(F)(F)F)cc3O)c3ccncc23)C1 [Example 38, 2-[4-[[(1R,3R)-3-hydroxy-3-methyl-cyclopentyl]amino]pyrido[3,4-d]pyridazin-1-yl]-5-(trifluoromethyl)phenol] | 810 (≈ 328 µg/mL) | > 80.9 | 9 | 16 | 27 | > 40000 | 83 | 29 |

Stronger by IC50 [5], values ahead:

| solubility [2] [µM] | solubility [3] [µg/mL] | IC50 [5] [nM] | IC50 [6] [nM] | EC50 [7] [nM] | SMILES | IC50 [1] [nM] | inhibition at 3 mg/kg [4] [%] | inhibition at 1 mg/kg [4] [%] |
| --- | --- | --- | --- | --- | --- | --- | --- | --- |
| 263 (≈ 111 µg/mL) | 14.5 (≈ 34.5 µM) | 3 | 8 | 25 | Oc1cc(OC(F)(F)F)ccc1-c1nnc(N[C@@H]2CCCC[C@H]2O)c2cnccc12 [Example 56, 2-[4-[[(1R,2R)-2-hydroxycyclohexyl]amino]pyrido[3,4-d]pyridazin-1-yl]-5-(trifluoromethoxy)phenol] | 19000 | 98 |  |
| 26 (≈ 10.1 µg/mL) | 10.3 (≈ 26.4 µM) | < 3 | 12 | 17 | Oc1cc(C(F)(F)F)ccc1-c1nnc(N[C@@H]2CC[C@H](O)C2)c2cnccc12 [Example 60, 2-(4-(((1R,3S)-3-hydroxycyclopentyl)amino)pyrido[3,4-d]pyridazin-1-yl)-5-(trifluoromethyl)phenol] | > 40000 | 97 | 60 |
